From PMC11207571, “Applicability of MDR1 Overexpressing Abcb1KO-MDCKII Cell Lines for Investigating In Vitro Species Differences and Brain Penetration Prediction” (Pharmaceutics, 2024) come the findings set out here.

The structures appear in SMILES notation.

What all share (settings): 1 µM, 120 min; mean ± SD
Series [1] concerns the target mouse Mdr1a (Mus musculus, UniProt P21447). Briefly: Bidirectional transport assay, efflux ratio in Abcb1KO-MDCKII mMDR1 cells. The gist of the method:
(§1)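 Samples, combined into pools of three to four analytes, are injected onto HPLC with formic acid (0.1%)-modified aqueous and acetonitrile eluents. They are then quantified by tandem MS in SRM mode.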

Series [2] deals with cynomolgus monkey Mdr1 (Macaca fascicularis, UniProt Q8HZQ6). Briefly: Bidirectional transport assay, efflux ratio in Abcb1KO-MDCKII cyMDR1 cells. The gist of the method:
as §1

The test system of series [3] is Abcb1KO-MDCKII-Mock cells. Briefly: Bidirectional transport assay, efflux ratio in Abcb1KO-MDCKII-Mock control cells. The protocol:
Eluent A consisted of 0.1% formic acid in water, eluent B consisted of 0.1% formic acid in acetonitrile. Then, 10 µL samples were injected into the HPLC-MS/MS system. Mass spectrometric detection was performed in SRM mode, and ion transitions for each analyte were optimized during method development. Samples were analyzed in pools, with each pool containing three to four analytes.

In series [4] the target is human MDR1 (Homo sapiens, UniProt P08183). The experiment in a line: Bidirectional transport assay, efflux ratio in Abcb1KO-MDCKII hMDR1 cells. The gist of the method: as §1
Sequence of human MDR1 (P08183 whole entry): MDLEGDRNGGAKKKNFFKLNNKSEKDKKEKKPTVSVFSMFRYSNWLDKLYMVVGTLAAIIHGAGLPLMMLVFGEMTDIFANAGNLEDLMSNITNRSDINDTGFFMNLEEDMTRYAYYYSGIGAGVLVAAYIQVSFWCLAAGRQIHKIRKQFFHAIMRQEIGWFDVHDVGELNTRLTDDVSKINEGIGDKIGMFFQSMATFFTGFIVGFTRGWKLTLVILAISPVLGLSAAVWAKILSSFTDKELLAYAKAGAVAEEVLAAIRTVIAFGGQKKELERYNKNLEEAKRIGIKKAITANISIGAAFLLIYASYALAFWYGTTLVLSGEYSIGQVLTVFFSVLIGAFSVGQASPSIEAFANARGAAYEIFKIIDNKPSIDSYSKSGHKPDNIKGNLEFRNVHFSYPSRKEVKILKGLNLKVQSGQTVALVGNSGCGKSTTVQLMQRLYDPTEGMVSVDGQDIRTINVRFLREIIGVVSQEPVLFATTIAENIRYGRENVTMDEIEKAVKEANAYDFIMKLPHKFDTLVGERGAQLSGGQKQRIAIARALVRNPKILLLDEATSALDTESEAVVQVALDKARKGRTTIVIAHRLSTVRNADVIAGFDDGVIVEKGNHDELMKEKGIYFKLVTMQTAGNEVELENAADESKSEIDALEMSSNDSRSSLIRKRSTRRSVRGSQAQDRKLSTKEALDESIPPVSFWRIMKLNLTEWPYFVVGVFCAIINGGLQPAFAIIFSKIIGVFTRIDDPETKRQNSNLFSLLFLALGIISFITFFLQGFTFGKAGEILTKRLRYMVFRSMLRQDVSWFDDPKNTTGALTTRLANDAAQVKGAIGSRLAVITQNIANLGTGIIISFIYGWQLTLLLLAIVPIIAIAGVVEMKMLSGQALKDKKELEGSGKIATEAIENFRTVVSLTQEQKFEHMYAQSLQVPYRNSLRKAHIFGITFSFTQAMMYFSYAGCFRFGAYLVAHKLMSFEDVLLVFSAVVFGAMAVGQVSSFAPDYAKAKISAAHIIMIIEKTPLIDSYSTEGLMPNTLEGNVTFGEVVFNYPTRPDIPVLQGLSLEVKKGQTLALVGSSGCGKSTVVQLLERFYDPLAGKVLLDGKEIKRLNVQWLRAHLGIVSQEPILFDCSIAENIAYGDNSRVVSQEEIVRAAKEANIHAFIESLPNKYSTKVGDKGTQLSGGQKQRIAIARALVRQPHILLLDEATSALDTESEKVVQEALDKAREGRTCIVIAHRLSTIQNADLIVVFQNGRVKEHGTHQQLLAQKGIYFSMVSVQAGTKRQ
Series [5] addresses T1, human BCRP (Homo sapiens, UniProt Q9UNQ0).
T1 sequence (Q9UNQ0 1-655): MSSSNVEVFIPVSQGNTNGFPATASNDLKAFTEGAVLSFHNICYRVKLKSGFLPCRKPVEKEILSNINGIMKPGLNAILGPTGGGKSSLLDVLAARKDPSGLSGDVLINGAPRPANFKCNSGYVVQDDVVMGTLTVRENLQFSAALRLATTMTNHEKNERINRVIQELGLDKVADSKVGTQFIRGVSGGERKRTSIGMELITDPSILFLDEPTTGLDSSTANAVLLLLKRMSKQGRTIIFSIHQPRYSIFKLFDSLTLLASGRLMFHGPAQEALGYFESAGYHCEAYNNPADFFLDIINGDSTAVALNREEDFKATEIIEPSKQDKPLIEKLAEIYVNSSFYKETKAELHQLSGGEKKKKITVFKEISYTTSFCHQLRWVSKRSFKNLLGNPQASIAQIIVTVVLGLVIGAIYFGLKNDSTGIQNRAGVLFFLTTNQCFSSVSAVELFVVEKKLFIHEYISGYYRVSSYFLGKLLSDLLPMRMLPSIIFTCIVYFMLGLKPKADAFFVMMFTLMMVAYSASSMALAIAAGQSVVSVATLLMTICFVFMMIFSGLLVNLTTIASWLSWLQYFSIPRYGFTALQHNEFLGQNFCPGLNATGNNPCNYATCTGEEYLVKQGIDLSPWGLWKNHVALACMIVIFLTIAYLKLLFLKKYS
Briefly: Bidirectional transport assay, efflux ratio in MDCKII-BCRP cells. Summed up:
as §1

In series [6] the target is rat Mdr1a (Rattus norvegicus, UniProt Q6PSM0). Briefly: Bidirectional transport assay, efflux ratio in Abcb1KO-MDCKII rMDR1 cells. The gist of the method: as §1
Sequence of rat Mdr1a (Q6PSM0 1-1272): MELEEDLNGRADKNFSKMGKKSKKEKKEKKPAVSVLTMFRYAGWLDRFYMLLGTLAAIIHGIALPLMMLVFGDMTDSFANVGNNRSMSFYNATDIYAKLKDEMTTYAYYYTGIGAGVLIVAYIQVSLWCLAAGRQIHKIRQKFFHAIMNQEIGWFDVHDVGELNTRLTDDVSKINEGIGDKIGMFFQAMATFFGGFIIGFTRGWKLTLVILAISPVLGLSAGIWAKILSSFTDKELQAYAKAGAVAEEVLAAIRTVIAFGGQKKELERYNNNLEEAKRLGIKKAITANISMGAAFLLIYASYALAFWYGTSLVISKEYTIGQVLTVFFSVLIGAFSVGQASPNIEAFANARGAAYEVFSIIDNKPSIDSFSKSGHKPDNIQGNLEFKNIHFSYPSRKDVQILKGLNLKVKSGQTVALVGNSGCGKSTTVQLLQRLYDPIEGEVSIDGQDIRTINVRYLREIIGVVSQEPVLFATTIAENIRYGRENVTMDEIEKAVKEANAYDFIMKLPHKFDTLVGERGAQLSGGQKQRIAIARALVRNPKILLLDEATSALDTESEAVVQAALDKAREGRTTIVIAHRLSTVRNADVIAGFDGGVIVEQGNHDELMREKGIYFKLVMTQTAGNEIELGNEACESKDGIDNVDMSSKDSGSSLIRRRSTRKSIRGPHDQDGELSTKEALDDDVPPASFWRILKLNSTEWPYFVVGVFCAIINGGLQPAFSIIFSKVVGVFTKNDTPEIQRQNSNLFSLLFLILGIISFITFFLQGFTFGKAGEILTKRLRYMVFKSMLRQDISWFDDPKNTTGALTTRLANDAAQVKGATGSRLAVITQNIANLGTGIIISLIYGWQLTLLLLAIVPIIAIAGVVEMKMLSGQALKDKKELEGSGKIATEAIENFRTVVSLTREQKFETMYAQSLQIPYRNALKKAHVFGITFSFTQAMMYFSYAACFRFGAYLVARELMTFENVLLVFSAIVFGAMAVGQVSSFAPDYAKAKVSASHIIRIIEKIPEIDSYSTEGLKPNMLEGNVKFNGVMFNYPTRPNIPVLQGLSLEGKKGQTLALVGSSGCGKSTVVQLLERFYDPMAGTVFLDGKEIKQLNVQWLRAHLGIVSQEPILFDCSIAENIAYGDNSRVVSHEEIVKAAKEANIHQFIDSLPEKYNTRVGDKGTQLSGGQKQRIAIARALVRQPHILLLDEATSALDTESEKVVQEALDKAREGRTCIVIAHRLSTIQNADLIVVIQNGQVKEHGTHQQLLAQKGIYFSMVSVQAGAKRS

Sequence of cynomolgus monkey Mdr1 (Q8HZQ6 1-1283): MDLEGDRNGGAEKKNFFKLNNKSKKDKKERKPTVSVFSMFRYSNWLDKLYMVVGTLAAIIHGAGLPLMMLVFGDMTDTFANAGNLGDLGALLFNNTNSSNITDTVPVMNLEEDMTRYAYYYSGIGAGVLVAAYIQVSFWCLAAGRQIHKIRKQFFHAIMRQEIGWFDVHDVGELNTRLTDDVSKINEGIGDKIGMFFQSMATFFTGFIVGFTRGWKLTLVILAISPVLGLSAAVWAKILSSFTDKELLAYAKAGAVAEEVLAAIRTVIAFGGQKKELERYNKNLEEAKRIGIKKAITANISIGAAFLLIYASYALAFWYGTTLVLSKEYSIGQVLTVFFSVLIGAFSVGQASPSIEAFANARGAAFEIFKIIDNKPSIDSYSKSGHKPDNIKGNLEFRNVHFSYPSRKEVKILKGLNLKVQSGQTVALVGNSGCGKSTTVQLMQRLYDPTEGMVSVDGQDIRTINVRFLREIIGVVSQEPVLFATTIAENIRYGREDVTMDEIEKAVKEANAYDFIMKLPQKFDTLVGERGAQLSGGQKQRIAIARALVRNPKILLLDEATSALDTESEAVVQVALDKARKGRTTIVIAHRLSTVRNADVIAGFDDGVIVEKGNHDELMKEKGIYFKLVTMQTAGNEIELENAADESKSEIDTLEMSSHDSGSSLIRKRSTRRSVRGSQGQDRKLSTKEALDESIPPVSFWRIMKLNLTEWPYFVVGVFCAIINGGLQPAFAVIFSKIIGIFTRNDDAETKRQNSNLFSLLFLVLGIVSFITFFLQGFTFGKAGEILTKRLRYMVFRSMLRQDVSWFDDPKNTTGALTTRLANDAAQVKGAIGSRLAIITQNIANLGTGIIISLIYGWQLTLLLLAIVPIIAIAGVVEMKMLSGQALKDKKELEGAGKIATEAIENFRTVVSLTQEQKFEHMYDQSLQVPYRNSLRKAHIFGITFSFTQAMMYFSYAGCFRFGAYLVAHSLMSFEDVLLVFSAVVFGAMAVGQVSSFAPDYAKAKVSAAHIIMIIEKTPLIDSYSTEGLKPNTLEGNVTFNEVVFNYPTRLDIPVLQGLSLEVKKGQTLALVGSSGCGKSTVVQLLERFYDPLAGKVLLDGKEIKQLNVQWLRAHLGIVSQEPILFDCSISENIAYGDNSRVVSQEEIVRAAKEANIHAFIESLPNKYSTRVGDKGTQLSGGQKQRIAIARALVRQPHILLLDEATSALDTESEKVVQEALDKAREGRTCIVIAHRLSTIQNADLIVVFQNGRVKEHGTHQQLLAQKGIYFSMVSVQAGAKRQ
Sequence of mouse Mdr1a (P21447 whole entry): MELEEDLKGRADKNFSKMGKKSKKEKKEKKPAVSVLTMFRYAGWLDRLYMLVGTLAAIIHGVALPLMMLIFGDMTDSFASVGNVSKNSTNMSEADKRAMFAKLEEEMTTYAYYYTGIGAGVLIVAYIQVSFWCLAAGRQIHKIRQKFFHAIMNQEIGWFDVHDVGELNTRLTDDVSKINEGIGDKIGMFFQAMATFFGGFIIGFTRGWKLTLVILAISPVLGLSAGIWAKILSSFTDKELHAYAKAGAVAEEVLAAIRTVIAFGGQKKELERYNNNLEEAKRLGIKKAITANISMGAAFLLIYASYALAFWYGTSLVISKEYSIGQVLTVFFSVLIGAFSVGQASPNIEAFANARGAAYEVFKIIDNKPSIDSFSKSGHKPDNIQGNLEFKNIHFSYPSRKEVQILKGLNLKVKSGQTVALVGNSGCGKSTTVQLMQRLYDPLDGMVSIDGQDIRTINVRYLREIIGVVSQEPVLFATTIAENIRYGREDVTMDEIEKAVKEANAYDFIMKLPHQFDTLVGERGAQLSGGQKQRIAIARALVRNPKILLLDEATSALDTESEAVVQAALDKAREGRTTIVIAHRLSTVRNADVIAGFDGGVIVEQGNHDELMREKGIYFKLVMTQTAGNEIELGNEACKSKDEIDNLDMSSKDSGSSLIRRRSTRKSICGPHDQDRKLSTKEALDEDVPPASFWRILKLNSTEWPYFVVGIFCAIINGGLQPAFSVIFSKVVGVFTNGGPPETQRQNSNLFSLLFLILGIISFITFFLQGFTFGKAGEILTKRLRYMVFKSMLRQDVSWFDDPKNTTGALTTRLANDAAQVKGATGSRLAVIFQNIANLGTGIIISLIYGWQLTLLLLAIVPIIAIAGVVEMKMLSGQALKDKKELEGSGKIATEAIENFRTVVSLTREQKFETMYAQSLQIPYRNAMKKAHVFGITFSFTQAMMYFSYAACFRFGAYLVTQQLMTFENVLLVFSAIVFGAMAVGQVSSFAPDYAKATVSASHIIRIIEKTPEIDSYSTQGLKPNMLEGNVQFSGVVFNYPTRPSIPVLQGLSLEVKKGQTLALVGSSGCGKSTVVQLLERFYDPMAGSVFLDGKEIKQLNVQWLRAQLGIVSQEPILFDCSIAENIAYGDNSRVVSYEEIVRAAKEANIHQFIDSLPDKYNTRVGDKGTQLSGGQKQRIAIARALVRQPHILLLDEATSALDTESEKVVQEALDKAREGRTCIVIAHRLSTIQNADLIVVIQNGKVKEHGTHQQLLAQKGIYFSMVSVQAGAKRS

For the molecule `CN(C)CCC=C1c2ccccc2CCc2ccccc21` [Amitriptylline], in series [1], the “Efflux Ratio in Abcb1KO-MDCKII mMDR1” value is on record as 0.96 ± 0.12. For the same molecule, the “Efflux Ratio in Abcb1KO-MDCKII cyMDR1” value in series [2] is 0.67 ± 0.08. For the same molecule, the “Efflux Ratio in Abcb1KO-MDCKII Mock” value in series [3] was found to be 1.05 ± 0.08. Also, the “Efflux Ratio in Abcb1KO-MDCKII hMDR1” value in series [4] is on record as 1.1 ± 0.11. Moreover, the “ER in MDCKII BCRP” value in series [5] was 0.8 ± 0.07. Moreover, in series [6], the “Efflux Ratio in Abcb1KO-MDCKII rMDR1” value was found to be 0.94 ± 0.14.
